Read-outs that look alike come from different tables or passages of the source. A value given as a limit tells only on which side of the number the result lay.

The subject of one assay is HEK-293 cells. Put plainly: HEK-293 cell cytotoxicity detection (CellTiter-Glo). The format is cell-based. Particulars: incubation of 72 h, CellTiter-Glo luminescence. The procedure:
HEK-293 cells were treated with compounds diluted in 0.4% DMSO, dilution was done according to the following protocol: (1) making 250× stock solution in DMSO from 10 mM by 4-fold dilution, total 8 doses were included; (2) making 2 solution in cell culture medium by transferring 1 μl 250× stock solution into 124 μl medium; (3) adding 50 μl of 2× solution to cells for incubation of 72 h.
25 μl of the CellTiter-Glo® Reagent [(PromegaCat #G9242)] was added to each well in the 96-well plate. The contents were mixed for 2 minutes on an orbital shaker to induce cell lysis. The plate was then allowed to incubate at room temperature for 10 minutes to stabilize luminescent signal. Luminescence was recorded on BMG PheraStar with luminescence protocol.
The IC50 value of a compound can be obtained by fitting the following equation: […]
Wherein, X and Y are known values, and IC50, Hillslope, Top and Bottom are the parameters obtained by fitting with software. Y is the inhibition percentage (calculated from the equation), X is the concentration of the compound; IC50 is the concentration of the compound when the 50% inhibition is reached. The smaller the IC50 value is, the stronger the inhibitory ability of the compound is. Vice versa, the higher the IC50 value is, the weaker the ability the inhibitory ability of the compound is; Hillslope represents the slope of the fitted curve, generally around 1*; Bottom represents the minimum value of the curve obtained by data fitting, which is generally 0%±20%; Top represents the maximum value of the curve obtained by data fitting, which is generally 100%±20%. The experimental data were fitted by calculating and analyzing with Dotmatics data analysis software.
(Cellular ATP, detected with luciferase, serves as a proxy for viable cell number.)

The next assay concerns the target CDK1/Cyclin B1 (Homo sapiens, UniProt P06493). Put plainly: CDK1/Cyclin B1 TR-FRET biochemical assay (1 mM ATP). Particulars: 90 minutes reaction. The procedure:
(§1) Compounds disclosed herein were tested for inhibition of CDK2/Cyclin E1 or CDK1/Cyclin B1 kinase in an assay based on the time-resolved fluorescence-resonance energy transfer (TR-FRET) methodology. The assay was carried out in 384-well low volume black plates in a reaction mixture containing CDK2/Cyclin E1 or CDK1/Cyclin B1, 1 mM ATP for CDK2/Cyclin E1 and CDK1/Cyclin B1, 0.15 μM Rb (Ser780)-biotin substrate and 0-10 μM compound in buffer containing 50 mM HEPES pH7.0, 0.02% NaN3, 0.01% BSA, 0.1 mM Orthovanadate, 50 mM MgCl2, 1 mM DTT and 0.005% Tween-20. The kinase was incubated with compound for 60 minutes at room temperature and the reaction was initiated by the addition of ATP and Rb (Ser780)-biotin substrate. After reaction at room temperature for 90 minutes, an equal volume of stop/detection solution was added according to the manufacture's instruction (Cisbio Bioassays). The stop/detection solution contained Streptavidin-XL665 and Anti-pRb (Ser780) mAb-Eu Cryptate in Detection buffer (Cisbio Bioassays). Plates were incubated at room temperature for 60 minutes, and the TR-FRET signals (ex337 nm, em665 nm/620 nm) were recorded on a PHERAstar FSX plate reader (BMG Labtech). The inhibition percentage of CDK2/Cyclin E1 or CDK1/Cyclin B1 kinase activity in presence of increasing concentrations of compounds was calculated based on the ratio of fluorescence at 665 nm to that at 620 nm. The IC50 for each compound was derived from fitting the data to the four-parameter logistic equation by Dotmatics.
On the technique in general: In TR-FRET formats the signal depends on donor and acceptor labels being close together.

In a further assay the target is CDK2/Cyclin E1 (Homo sapiens, UniProt P24941). Put plainly: CDK2/Cyclin E1 TR-FRET biochemical assay (1 mM ATP). As to conditions: 90 minutes reaction. As for the experimental part:
as §1

Chain of CDK1/Cyclin B1 (P06493 whole entry): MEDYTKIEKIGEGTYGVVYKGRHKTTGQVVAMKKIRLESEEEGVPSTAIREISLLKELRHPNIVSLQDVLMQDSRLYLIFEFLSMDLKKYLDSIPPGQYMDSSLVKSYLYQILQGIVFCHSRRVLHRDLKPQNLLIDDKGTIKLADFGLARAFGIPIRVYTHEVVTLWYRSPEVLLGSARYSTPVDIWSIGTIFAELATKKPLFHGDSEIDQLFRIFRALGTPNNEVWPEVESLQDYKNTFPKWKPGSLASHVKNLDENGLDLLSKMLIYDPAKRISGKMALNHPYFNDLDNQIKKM
Chain of CDK1/Cyclin B1 (P14635 whole entry partner): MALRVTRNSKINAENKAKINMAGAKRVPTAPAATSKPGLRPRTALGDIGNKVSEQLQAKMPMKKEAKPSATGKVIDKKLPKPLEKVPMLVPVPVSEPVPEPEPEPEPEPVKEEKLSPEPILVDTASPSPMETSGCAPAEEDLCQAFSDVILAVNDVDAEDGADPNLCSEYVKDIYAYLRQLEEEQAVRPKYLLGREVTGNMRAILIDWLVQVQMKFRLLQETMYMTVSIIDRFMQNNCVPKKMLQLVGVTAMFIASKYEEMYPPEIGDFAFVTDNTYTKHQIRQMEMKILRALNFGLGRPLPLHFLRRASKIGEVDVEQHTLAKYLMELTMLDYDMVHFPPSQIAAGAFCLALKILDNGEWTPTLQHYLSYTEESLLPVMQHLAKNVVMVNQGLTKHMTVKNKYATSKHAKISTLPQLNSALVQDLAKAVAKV

Turning to `O=C(NC1CCC1)O[C@H]1CC[C@@H](c2cc(Nc3ccc4c(c3F)CS(=O)(=O)C4)n[nH]2)C1` (relative stereo) [Example 12, cis-3-(3-((4-fluoro-2,2-dioxido-1,3-dihydrobenzo[c]thiophen-5-yl)amino)-1H-pyrazol-5-yl)cyclopentyl cyclobutylcarbamate], the IC50 (in general, the concentration that inhibits the measured activity by half) was 499 nM with HEK-293 cells (Homo sapiens, HEK293, 72 h); 609 nM against CDK1/Cyclin B1; 1.2 nM against CDK2/Cyclin E1.
For `O=C(NCCC(F)(F)F)O[C@H]1CC[C@@H](c2cc(Nc3ccc4c(c3F)CS(=O)(=O)C4)n[nH]2)C1` (relative stereo) [Example 16, cis-3-(3-((4-fluoro-2,2-dioxido-1,3-dihydrobenzo[c]thiophen-5-yl)amino)-1H-pyrazol-5-yl)cyclopentyl (3,3,3-trifluoropropyl)carbamate] the same measures were 687 nM, 155 nM and 0.7 nM.
Taken in the same sequence, the figures for `CC(C)(CO)NC(=O)O[C@H]1CC[C@@H](c2cc(Nc3ccc4c(c3F)CS(=O)(=O)C4)n[nH]2)C1` (relative stereo) [Example 19, cis-3-(3-((4-fluoro-2,2-dioxido-1,3-dihydrobenzo[c]thiophen-5-yl)amino)-1H-pyrazol-5-yl)cyclopentyl (1-hydroxy-2-methylpropan-2-yl)carbamate] were 201 nM, 181 nM and 0.8 nM.
Taken in the same sequence, the figures for `O=C(NC1COC1)O[C@H]1CC[C@@H](c2cc(Nc3ccc4c(c3F)CS(=O)(=O)C4)n[nH]2)C1` (relative stereo) [Example 20, cis-3-(3-((4-fluoro-2,2-dioxido-1,3-dihydrobenzo[c]thiophen-5-yl)amino)-1H-pyrazol-5-yl)cyclopentyl oxetan-3-ylcarbamate] were over 10000 nM, 4830 nM and 31 nM.
With `CN(C(=O)O[C@H]1CC[C@@H](c2cc(Nc3ccc4c(c3F)CS(=O)(=O)C4)n[nH]2)C1)C1CCOC1` (relative stereo) [Example 21, cis-3-(3-((4-fluoro-2,2-dioxido-1,3-dihydrobenzo[c]thiophen-5-yl)amino)-1H-pyrazol-5-yl)cyclopentyl methyl(tetrahydrofuran-3-yl)carbamate], the IC50 with HEK-293 cells (Homo sapiens, HEK293, 72 h) is over 10000 nM; against CDK1/Cyclin B1, 2600 nM; against CDK2/Cyclin E1 it was 24 nM.
For `O=C(NCC(F)(F)F)O[C@H]1CC[C@@H](c2cc(Nc3ccc4c(c3F)CS(=O)(=O)C4)n[nH]2)C1` (relative stereo) [Example 22, cis-3-(3-((4-fluoro-2,2-dioxido-1,3-dihydrobenzo[c]thiophen-5-yl)amino)-1H-pyrazol-5-yl)cyclopentyl (2,2,2-trifluoroethyl)carbamate] the same measures were over 10000 nM, 1050 nM and 4.5 nM.
With `O=C(NC1CCCC1)O[C@H]1CC[C@@H](c2cc(Nc3ccc4c(c3F)CS(=O)(=O)C4)n[nH]2)C1` (relative stereo) [Example 23, cis-3-(3-((4-fluoro-2,2-dioxido-1,3-dihydrobenzo[c]thiophen-5-yl)amino)-1H-pyrazol-5-yl)cyclopentyl cyclopentylcarbamate], the IC50 with HEK-293 cells (Homo sapiens, HEK293, 72 h) stood at 2860 nM; against CDK1/Cyclin B1, 410 nM; against CDK2/Cyclin E1 it was 0.9 nM.
`CC(C)NC(=O)O[C@H]1CC[C@@H](c2cc(Nc3cc4c(cc3F)CS(=O)(=O)C4)n[nH]2)C1` (relative stereo) [Example 27, cis-3-(3-((6-fluoro-2,2-dioxido-1,3-dihydrobenzo[c]thiophen-5-yl)amino)-1H-pyrazol-5-yl)cyclopentyl isopropylcarbamate]: the IC50 in the assay on HEK-293 cells (Homo sapiens, HEK293, 72 h) is over 10000 nM; at CDK1/Cyclin B1, 7450 nM; on CDK2/Cyclin E1, 33 nM.
Taken in the same sequence, the figures for `Cc1cc2c(cc1Nc1cc([C@@H]3CC[C@H](OC(=O)NC(C)C)C3)[nH]n1)CS(=O)(=O)C2` (relative stereo) [Example 28, cis-3-(3-((6-methyl-2,2-dioxido-1,3-dihydrobenzo[c]thiophen-5-yl)amino)-1H-pyrazol-5-yl)cyclopentyl isopropylcarbamate] were over 10000 nM, 2900 nM and 9.4 nM.
For `CC(C)NC(=O)O[C@H]1CC[C@@H](c2cc(Nc3cc4c(cc3F)C[S+]([O-])C4)n[nH]2)C1` (relative stereo) [Example 29, cis-3-(3-((6-fluoro-2-oxido-1,3-dihydrobenzo[c]thiophen-5-yl)amino)-1H-pyrazol-5-yl)cyclopentyl isopropylcarbamate] the same measures were over 10000 nM, over 10000 nM and 576 nM.
Take `CC(C)NC(=O)O[C@H]1CC[C@@H](c2cc(Nc3cc4c(cc3F)CSC4)n[nH]2)C1` (relative stereo) [Example 30, cis-3-(3-((6-fluoro-1,3-dihydrobenzo[c]thiophen-5-yl)amino)-1H-pyrazol-5-yl)cyclopentyl isopropylcarbamate]: the IC50 in the assay with HEK-293 cells (Homo sapiens, HEK293, 72 h) is over 10000 nM; against CDK1/Cyclin B1, over 10000 nM; against CDK2/Cyclin E1, 383 nM.
Consider `CC(C)NC(=O)O[C@H]1CC[C@@H](c2cc(Nc3ccc4c(c3F)C[S+]([O-])C4)n[nH]2)C1` (relative stereo) [Example 31, cis-3-(3-((4-fluoro-2-oxido-1,3-dihydrobenzo[c]thiophen-5-yl)amino)-1H-pyrazol-5-yl)cyclopentyl isopropylcarbamate], for which the IC50 stood at 1570 nM in the assay on HEK-293 cells (Homo sapiens, HEK293, 72 h); 3360 nM on CDK1/Cyclin B1; 5.3 nM on CDK2/Cyclin E1.
`CCN(C)C(=O)O[C@H]1CC[C@@H](c2cc(Nc3ccc4c(c3F)CS(=O)(=O)C4)n[nH]2)C1` (relative stereo) [Example 32, cis-3-(3-((4-fluoro-2,2-dioxido-1,3-dihydrobenzo[c]thiophen-5-yl)amino)-1H-pyrazol-5-yl)cyclopentyl ethyl(methyl)carbamate]: the IC50 was over 10000 nM in the assay on HEK-293 cells (Homo sapiens, HEK293, 72 h); 493 nM at CDK1/Cyclin B1; 4.2 nM on CDK2/Cyclin E1.
With `CC(C)NC(=O)O[C@H]1CC[C@@H](c2cc(Nc3ccc4c(c3F)CSC4)n[nH]2)C1` (relative stereo) [Example 33, cis-3-(3-((4-fluoro-1,3-dihydrobenzo[c]thiophen-5-yl)amino)-1H-pyrazol-5-yl)cyclopentyl isopropylcarbamate], the IC50 was over 10000 nM in the assay on HEK-293 cells (Homo sapiens, HEK293, 72 h); 4880 nM against CDK1/Cyclin B1; 22 nM against CDK2/Cyclin E1.
Consider `Cc1c(Nc2cc([C@@H]3CC[C@H](OC(=O)NC(C)C)C3)[nH]n2)ccc2c1CS(=O)(=O)C2` (relative stereo) [Example 35, cis-3-(3-((4-methyl-2,2-dioxido-1,3-dihydrobenzo[c]thiophen-5-yl)amino)-1H-pyrazol-5-yl)cyclopentyl isopropylcarbamate], for which the IC50 was 739 nM with HEK-293 cells (Homo sapiens, HEK293, 72 h); 169 nM against CDK1/Cyclin B1; 0.4 nM on CDK2/Cyclin E1.
For `CC1(NC(=O)OC2CCC(c3cc(Nc4ccc5c(c4F)CS(=O)(=O)C5)n[nH]3)C2)CCOC1` (single isomer, unassigned) [Example 13a, cis-3-(3-((4-fluoro-2,2-dioxido-1,3-dihydrobenzo[c]thiophen-5-yl)amino)-1H-pyrazol-5-yl)cyclopentyl (3-methyltetrahydrofuran-3-yl)carbamate], the IC50 in the assay on HEK-293 cells (read-out: HEK293 IC50) was 2150 nM; against CDK1/Cyclin B1, 493 nM; at CDK2/Cyclin E1, 0.5 nM.

Values taken from US20260176282A1, “BICYCLIC COMPOUNDS AS CDK INHIBITORS” (BEONE MEDICINES I GMBH, priority 2023, published 2026).
